Results from patent US7273715B2 (priority 2003, dated 2007).
Like-named read-outs stand apart in the source and are kept apart here. Peptide text beside a SMILES is read from it. * marks the point of attachment. Cbz = O=C(OCc1ccccc1)*

Assays:
[1] = target: Human Prolylcarboxypeptidase (Homo sapiens, UniProt P42785); conditions: read-out: Inhibition profile, ProlylcarboxyPeptidase; cited from earlier work
[2] = target: T1, GS-9005 hydrolase A (Homo sapiens, UniProt P42785); assay type: biochemical
T1 construct: Varying amounts of purified GS-9005 hydrolase A and control enzymes; from tissue; host or cells: human peripheral blood mononuclear cells (PBMC), purified by Q15 flow-through, SP-Sepharose, Butyl Sepharose HIC and lentil lectin chromatography
T1 sequence (P42785 46-496): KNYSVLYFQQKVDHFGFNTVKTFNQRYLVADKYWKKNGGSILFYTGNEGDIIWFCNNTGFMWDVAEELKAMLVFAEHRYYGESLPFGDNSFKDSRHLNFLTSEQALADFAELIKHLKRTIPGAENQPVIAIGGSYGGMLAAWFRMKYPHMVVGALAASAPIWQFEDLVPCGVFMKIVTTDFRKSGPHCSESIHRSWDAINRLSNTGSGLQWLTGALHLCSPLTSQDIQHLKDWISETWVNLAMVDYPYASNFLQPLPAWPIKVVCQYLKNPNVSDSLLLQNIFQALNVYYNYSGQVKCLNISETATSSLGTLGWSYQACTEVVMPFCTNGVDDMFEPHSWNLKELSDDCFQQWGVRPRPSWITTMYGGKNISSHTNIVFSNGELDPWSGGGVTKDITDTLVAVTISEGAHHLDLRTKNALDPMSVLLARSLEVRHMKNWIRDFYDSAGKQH

[3] = target: T1, GS-9005 hydrolase A; assay type: biochemical; remark: listed apart in the source
[4] = pH 6.5, read-out: IC50 (inhibition profile, 9005 Hydrolase A)
[5] = read-out: concentration at which GS-9005 hydrolase A is inhibited by 50%

O=C[C@@H]1CCCN1C(=O)[C@@H]1CCCN1C(=O)OCc1ccccc1 [Cbz-pro-pro-COH, Carboxybenzoyl-Pro-Pro-COH] (Cbz-Pro-Pro-aldehyde)
IC50 [1]: 1 µM
inhibition of GS-9005 hydrolase A (in words) [2]: inhibited
IC50 [2, 4]: 1 µM
IC50 [2, 5]: ~1 µM

CCOC(=O)[C@H](C)OP(=O)(COc1ccc(C[C@H](NC(=O)O[C@H]2CO[C@H]3OCCC32)[C@H](O)CN(CC(C)C)S(=O)(=O)c2ccc(OC)cc2)cc1)Oc1ccccc1 (stereo partly shown) [Compound A]
specific activity of GS-9005 hydrolase A against the compound (comparison in words) [3]: greater than its specific activity against Compound L

CCOC(=O)[C@H](C)NP(=O)(COc1ccc(C[C@@H]2[C@H](O)[C@@H](O)[C@@H](Cc3ccc(OC)cc3)N(Cc3ccc4[nH]ncc4c3)C(=O)N2Cc2ccc3[nH]ncc3c2)cc1)N[C@@H](C)C(=O)OCC [Compound BB]
specific activity of GS-9005 hydrolase A against the compound (comparison in words) [3]: approximately equivalent specific activity

CCOC(=O)[C@H](C)NP(=O)(COc1ccc(C[C@@H]2[C@H](O)[C@@H](O)[C@@H](Cc3ccc(OC)cc3)N(Cc3ccc4[nH]ncc4c3)C(=O)N2Cc2ccc3[nH]ncc3c2)cc1)Oc1ccccc1 (stereo partly shown) [Compound CC]
specific activity of GS-9005 hydrolase A against the compound (comparison in words) [3]: approximately equivalent specific activity

CCOC(=O)[C@H](C)OP(=O)(COc1ccc(C[C@@H]2[C@H](O)[C@@H](O)[C@@H](Cc3ccc(OC)cc3)N(Cc3ccc4[nH]ncc4c3)C(=O)N2Cc2ccc3[nH]ncc3c2)cc1)Oc1c(C)cccc1C (stereo partly shown) [Compound EE]
specific activity of GS-9005 hydrolase A against the compound (comparison in words) [3]: greater than its specific activity against Compound W

CCOC(=O)[C@H](C)OP(=O)(CCNCc1ccc(Cn2c(COC(N)=O)nc(C(C)C)c2Sc2cc(Cl)cc(Cl)c2)cc1)Oc1ccccc1 (stereo partly shown) [Compound GG]
specific activity of GS-9005 hydrolase A against the compound (comparison in words) [3]: greater than its specific activity against Compound DD

CCOC(=O)COP(=O)(COc1ccc(Cn2c(COC(N)=O)nc(C(C)C)c2Sc2cc(Cl)cc(Cl)c2)cc1)Oc1ccccc1 (stereo not shown) [Compound HH]
specific activity of GS-9005 hydrolase A against the compound (comparison in words) [3]: greater than its specific activity against Compound I

CCSc1ccc(CN2CCCN(Cc3cccnc3)CC2)cc1 [Compound JJ]
specific activity of GS-9005 hydrolase A against the compound (comparison in words) [3]: greater than its specific activity against Compound AA

CCOC(=O)[C@H](C)NP(=O)(COc1ccc(Cn2c(COC(N)=O)nc(C(C)C)c2Sc2cc(Cl)cc(Cl)c2)cc1)Oc1ccccc1 (stereo partly shown) [Compound KK]
specific activity of GS-9005 hydrolase A against the compound (comparison in words) [3]: greater than its specific activity against Compound FF

C=C(OC(C)C)[C@H](C)N[P@](=O)(CO[C@H](C)Cn1cnc2c(C)ncnc21)Oc1ccccc1 [Compound K]
specific activity of GS-9005 hydrolase A against the compound (comparison in words) [3]: approximately equivalent specific activity

COC(=O)[C@H](C)NP(=O)(COc1ccc(Cn2c(COC(N)=O)nc(C(C)C)c2Sc2cc(Cl)cc(Cl)c2)cc1)Oc1ccccc1 (stereo partly shown) [Compound LL]
specific activity of GS-9005 hydrolase A against the compound (comparison in words) [3]: approximately equivalent specific activity

COC(=O)[C@H](C)N[P@](=O)(CO[C@H](C)Cn1cnc2c(N)ncnc21)Oc1ccccc1 [Compound U]
specific activity of GS-9005 hydrolase A against the compound (comparison in words) [3]: approximately equivalent specific activity

C=C(OC(C)C)C(C)OP(=O)(CCNCc1ccc(C[C@H](NC(=O)O[C@H]2CO[C@H]3OCC[C@H]32)[C@H](O)CN(CC(C)C)S(=O)(=O)c2ccc(OC)cc2)cc1)Oc1ccccc1 (stereo partly shown) [Compound X]
specific activity of GS-9005 hydrolase A against the compound (comparison in words) [3]: greater than its specific activity against Compound V

CCOC(=O)[C@H](C)OP(=O)(CCN1CCN(C(=O)c2c3c(c(O)c4ncccc24)C(=O)N(Cc2ccc(F)cc2)C3)CC1)Oc1ccccc1 (stereo partly shown) [Compound Y]
specific activity of GS-9005 hydrolase A against the compound (comparison in words) [3]: greater than its specific activity against Compound B

C=C(OCC)[C@H](C)OP(=O)(CCNC(=O)c1c2c(c(O)c3ncccc13)C(=O)N(Cc1ccc(F)cc1)C2)Oc1ccccc1 (stereo partly shown) [Compound Z]
specific activity of GS-9005 hydrolase A against the compound (comparison in words) [3]: approximately equivalent specific activity

O=c1oc(Cl)c(Cl)c2ccccc12 [DCI, 3,4 dichloroisocoumarin]
inhibition of GS-9005 hydrolase A (in words) [2]: inhibited

O=S(=O)(F)Cc1ccccc1 [PMSF]
IC50 [1]: 100 to 300 µM
IC50 [2, 4]: 200 µM
IC50 [2, 5]: ~200 µM
